Experimental data published in ChEMBL document CHEMBL1201862, “PubChem BioAssay data set” (2004).
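These data come from cells grown in 96-well plates and exposed to compound for 48 hours at five concentrations. The concentration for 50% growth inhibition is given as GI50.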 Calls of active or inactive are those of the source. Cut-off read from the data, not from the text of the source: active = GI50 up to about 1.1 µM and inactive = higher.

How the values were obtained:
Experiment in all cases: NCI-60 cell line screen, 48 h
[1] = system: SW-620
[2] = system: SK-OV-3
[3] = system: OVCAR-8
[4] = system: HOP-62
[5] = system: COLO 205
[6] = system: SK-MEL-5
[7] = system: A498
[8] = system: HT-29
[9] = system: NCI-H226
[10] = system: ACHN
[11] = system: K562
[12] = system: SK-MEL-2
[13] = system: TK-10
[14] = system: SN12C
[15] = system: LOX IMVI
[16] = system: PC-3
[17] = system: UACC-257
[18] = system: NCI/ADR-RES
[19] = system: UO-31
[20] = system: HOP-92

Measured: GI50

CC1=C/C(O)CC(=O)Cc2nc(co2)C(=O)N2CCC=C2C(=O)OC(C(C)C)C(C)/C=C\C(=O)NC/C=C\1 (configuration not stated)
inactive: [1] 18.1 µM | [2] 53.1 µM | [3] 15.3 µM | [4] 31.5 µM | [5] 16.3 µM | [6] 33.4 µM | [7] 23.6 µM | [8] 15.5 µM | [9] 17.7 µM | [10] 12.5 µM | [11] 31 µM | [12] 17.4 µM | [13] 31.6 µM | [14] 14.9 µM | [15] 17.2 µM | [16] 27.1 µM | [17] 35.3 µM

COC(=O)c1ccc(/N=N/N(C)COc2ccc(Br)cc2)cc1
inactive: [1] > 90.2 µM | [2] > 100 µM | [3] > 81.5 µM | [4] > 100 µM | [5] > 100 µM | [6] 55.3 µM | [18] > 100 µM | [7] 37.7 µM | [19] > 100 µM | [8] 49.3 µM | [9] > 100 µM | [11] 38.1 µM | [12] > 100 µM | [20] > 53 µM | [14] 68.5 µM | [15] 49.2 µM | [17] > 71.8 µM

COC(=O)[C@@H]1CN(C(=O)CCc2ccccc2)C(=O)N1C(=O)OCc1ccccc1
inactive: [1] > 100 µM | [2] > 100 µM | [3] > 100 µM | [4] > 100 µM | [5] > 100 µM | [6] > 100 µM | [18] > 100 µM | [7] > 100 µM | [19] > 100 µM | [8] > 100 µM | [9] > 100 µM | [10] > 100 µM | [11] > 100 µM | [12] > 100 µM | [13] > 100 µM | [20] > 100 µM | [14] > 100 µM | [15] > 100 µM | [17] > 100 µM

O=C(N/N=C\c1ccc2ccccc2c1)Nc1ccc([N+](=O)[O-])cc1
inactive: [1] 32.7 µM | [2] 18.9 µM | [3] 23 µM | [4] 27 µM | [5] 21.6 µM | [6] 22.7 µM | [18] 20.9 µM | [19] 23.2 µM | [8] 21.3 µM | [9] 29.4 µM | [10] 24.6 µM | [11] 9.84 µM | [12] 24 µM | [13] 18.9 µM | [20] 17.5 µM | [14] 24.2 µM | [15] 30.5 µM | [16] 17.2 µM | [17] 29 µM

CC#N.O[C@@H]1CCCC[C@@H]1O.O[C@@H]1CCCC[C@@H]1O.[TeH2]
inactive: [1] 18.6 µM | [2] 77.8 µM | [3] 21.8 µM | [4] 41.7 µM | [5] 84.3 µM | [6] 40.6 µM | [7] 30.4 µM | [19] 57.1 µM | [8] 33.4 µM | [9] 40.6 µM | [10] 33.2 µM | [11] 18.7 µM | [12] 74.3 µM | [13] > 100 µM | [20] 26.1 µM | [14] 24.2 µM | [15] 10.6 µM | [17] 54.3 µM

O=C1/C(=C/c2ccc(Cl)cc2)Oc2ccccc21
inactive: [1] > 100 µM | [2] > 100 µM | [3] 29.9 µM | [4] 22.3 µM | [5] 47.1 µM | [6] 20.4 µM | [18] > 10 µM | [19] 16.8 µM | [8] > 100 µM | [9] 38.1 µM | [10] 20.4 µM | [11] > 100 µM | [13] 22.7 µM | [14] 96.8 µM | [16] > 10 µM | [17] 64.7 µM

CC(C)Cc1ccc(C(C)C(=O)N2CCN(/C=C/c3ccccc3)CC2)cc1 (configuration not stated)
inactive: [1] 15.6 µM | [2] 16.6 µM | [3] 14.5 µM | [4] 15.8 µM | [5] 15.4 µM | [6] 12.1 µM | [18] 13.1 µM | [7] 16.4 µM | [19] 10.5 µM | [8] 14.7 µM | [9] 12.6 µM | [11] 5.58 µM | [12] 13.6 µM | [20] 13.1 µM | [14] 15.8 µM | [15] 18.7 µM | [17] 17.3 µM

O=C(CNC(=O)c1ccccc1)Oc1c(Cl)c(Cl)c(Cl)c(Cl)c1Cl
inactive: [1] 21.6 µM | [2] 72.4 µM | [3] 22.1 µM | [4] 38.3 µM | [5] 35 µM | [18] 31 µM | [19] 22 µM | [8] 30.5 µM | [9] 29 µM | [10] 25.2 µM | [11] 28.2 µM | [12] 21 µM | [13] 40.4 µM | [14] 32.1 µM | [15] 35 µM | [16] 24.7 µM | [17] 19.6 µM

CCOC(=O)C1=C(NC)OCC1=O
inactive: [1] > 100 µM | [2] > 100 µM | [3] > 100 µM | [4] > 100 µM | [5] > 100 µM | [6] > 100 µM | [7] > 100 µM | [19] > 100 µM | [8] > 100 µM | [9] > 100 µM | [10] > 100 µM | [11] > 100 µM | [12] > 100 µM | [13] > 100 µM | [20] > 100 µM | [14] > 100 µM | [15] > 100 µM | [17] > 100 µM

CC(C)Cc1cccc(C(C)C)c1NC(=O)CCC(=O)N/N=C1\C(=N/NC(=O)CCC(=O)Nc2c(C(C)C)cccc2C(C)C)C(c2ccc3c(c2)OCO3)Oc2ccccc21 (configuration not stated)
inactive: [1] 46 µM | [2] > 100 µM | [3] 69.3 µM | [4] 71.9 µM | [5] > 100 µM | [6] > 100 µM | [7] > 100 µM | [19] 43.6 µM | [8] 43.8 µM | [9] > 100 µM | [10] 83 µM | [11] 25 µM | [12] > 100 µM | [13] > 100 µM | [20] > 100 µM | [14] 43.2 µM | [15] 44.5 µM | [17] > 100 µM

CC12CCC(C(=O)N3CC=CCC3)(OC1=O)C2(C)C (configuration not stated)
inactive: [1] > 100 µM | [2] > 100 µM | [3] > 100 µM | [4] > 100 µM | [5] > 100 µM | [6] > 100 µM | [18] > 100 µM | [7] > 100 µM | [19] > 100 µM | [8] > 100 µM | [9] > 100 µM | [11] > 100 µM | [12] > 100 µM | [20] > 100 µM | [14] > 100 µM | [15] > 100 µM | [17] > 100 µM

C=C1C(=O)O[C@H]2C[C@@]3(COC(C)=O)C=COC=C(COC(=O)C(C)C)C3CC12 (some centres not stated)
inactive: [1] 46.1 µM | [3] 53.3 µM | [4] > 100 µM | [5] 61.1 µM | [6] > 100 µM | [18] > 100 µM | [19] > 100 µM | [8] > 100 µM | [9] > 100 µM | [10] > 100 µM | [11] 31.6 µM | [13] > 100 µM | [14] 37.7 µM | [15] 45.2 µM | [16] 35.3 µM | [17] > 100 µM

COc1ccccc1Nc1nc(NNC(=O)Cc2ccccc2)nc(NNC(=O)c2ccncc2)n1
inactive: [1] > 10 µM | [2] > 10 µM | [3] > 10 µM | [4] > 10 µM | [5] > 10 µM | [6] > 10 µM | [18] > 10 µM | [8] > 10 µM | [11] > 10 µM | [13] > 10 µM | [20] > 10 µM | [14] > 10 µM | [15] > 10 µM | [17] > 10 µM

Sc1nc(S)nc(Oc2ccc(Cl)c(Cl)c2)n1
inactive: [1] > 61.4 µM | [2] > 51.5 µM | [3] 32.5 µM | [4] 40 µM | [5] > 42.3 µM | [6] 24.5 µM | [18] 38 µM | [7] 24 µM | [19] 24.6 µM | [8] 49.5 µM | [9] 38.1 µM | [10] 48.3 µM | [11] 16.5 µM | [13] > 66.1 µM | [20] 19.2 µM | [14] 37.9 µM | [15] 18.1 µM | [17] 43.7 µM

CC(C)(C)OC(=O)NCCc1ccc(N)cc1
inactive: [1] > 100 µM | [3] > 100 µM | [4] > 100 µM | [5] > 100 µM | [6] 33 µM | [18] 32.4 µM | [19] 4.2 µM | [8] > 100 µM | [10] > 100 µM | [11] 66.5 µM | [13] > 100 µM | [15] > 100 µM | [16] > 100 µM | [17] 72.8 µM

O=C(O)Cc1cccc2c1OC(c1ccccc1)C(Cl)(C(=O)c1ccccc1)C2=O (configuration not stated)
inactive: [1] 9.33 µM | [2] > 100 µM | [3] 22.2 µM | [4] 20.3 µM | [5] > 10 µM | [6] 15.3 µM | [18] 22.2 µM | [19] 17.4 µM | [8] 16.4 µM | [9] 30.1 µM | [10] 14 µM | [11] 5.52 µM | [13] 21.8 µM | [14] 10.5 µM | [15] 14.4 µM | [16] 11.4 µM | [17] 15.3 µM
